Results on 17 compounds are retold here after paper PMC6099574, “Synthesis, Design, and Structure–Activity Relationship of the Pyrimidone Derivatives as Novel Selective Inhibitors of Plasmodium falciparum Dihydroorotate Dehydrogenase” (Molecules : A Journal of Synthetic Chemistry and Natural …, 2018).

In series [1] the target is T1, hDHODH (Met30–Arg396) (Homo sapiens, UniProt Q02127).
T1 construct: enzyme activity determination of PfDHODH (Phe158–Ser569) and hDHODH (Met30–Arg396); made in house
The series is described as follows: In vitro enzyme assay, hDHODH (DCIP reduction). It counts as biochemical. Conditions: for IC50: in vitro enzyme assay. Here is the method:
(§1) Protein expression, purification, and enzyme activity determination of PfDHODH (Phe158–Ser569) and hDHODH (Met30–Arg396) were performed according to our previous work. The enzymes were diluted to a final concentration of 10 nM using the assay buffer containing 50 mM HEPES (pH 8.0), 150 mM KCl, 0.1% Triton X-100 supplemented with 100 µM UQ0, and 120 µM DCIP. The mixture was transferred into a 96-well plate and incubated with or without various amounts of inhibitors for 5 min at room temperature, and then the dihydroorotate was added to a final concentration of 500 µM to initiate the reaction. The reaction was monitored by measuring the decrease in DCIP in the absorption at 600 nm at each 30 s over a period of 6 min. Brequinar and DSM1 were measured as the positive controls for hDHODH and PfDHODH, respectively. Percent inhibition relative to no inhibitor control was calculated by (1 − Vi/V0) × 100. For the determination of the IC50 value of the inhibitor, eight or nine different concentrations were applied. Each inhibitor concentration point was tested in triplicate, and the IC50 values were calculated using the sigmoidal fitting option of the program Origin 8.0 (Originlab, Northampton, MA, US).

In series [2] the target is T2, PfDHODH (Phe158–Ser569) (Plasmodium falciparum, UniProt Q08210).
T2 construct: enzyme activity determination of PfDHODH (Phe158–Ser569) and hDHODH (Met30–Arg396); made in house
Description: In vitro enzyme assay, PfDHODH (DCIP reduction). Conditions: for inhibitory activity against PfDHODH (in words): qualitative statement. In kind it is biochemical. Here is the method:
as §1, with “Brequinar and DSM1 were measured as the positive controls for hDHODH and PfDHODH, respectively.” left out

The subject of series [3] is 3D7 cells. Further details: method as in PMID 24073986. The following applies: read-out: IC50 parasite growth in vitro, 3D7 cells; cited from earlier work.
Series [4] concerns Dd2 cells. Also noted: method as in PMID 24073986. Conditions: read-out: IC50 parasite growth in vitro, Dd2 cells; cited from earlier work.
On the set-up of series [5]: method as in PMID 24073986. The following applies: cited from earlier work.
Series [6] addresses T1, hDHODH (Met30–Arg396). Further details: method as in PMID 24073986. Conditions: previous work; cited from earlier work.
The target of series [7] is T2, PfDHODH (Phe158–Ser569). Further details: method as in PMID 24073986. The following applies: previous work; read-out: IC50 against PfDHODH; cited from earlier work.
Details of series [8]: method as in PMID 24073986. Conditions: cited from earlier work. The source holds these as a separate data set.
On the set-up of series [9]: method as in PMID 27641613. Conditions: compared with DSM 265; cited from earlier work.
On the set-up of series [10]: method as in PMID 27641613. Conditions: compared with DSM 265; cited from earlier work. The source holds these as a separate data set.
Details of series [11]: method as in PMID 27641613. The following applies: compared with DSM 265; cited from earlier work. The source holds these as a separate data set.
Where [12] appears, read: in vitro enzyme assay, read-out: IC50 (μM) PfDHODH.

Where two headings read alike, the source gives them in different places.

T2 sequence (Q08210 158-569): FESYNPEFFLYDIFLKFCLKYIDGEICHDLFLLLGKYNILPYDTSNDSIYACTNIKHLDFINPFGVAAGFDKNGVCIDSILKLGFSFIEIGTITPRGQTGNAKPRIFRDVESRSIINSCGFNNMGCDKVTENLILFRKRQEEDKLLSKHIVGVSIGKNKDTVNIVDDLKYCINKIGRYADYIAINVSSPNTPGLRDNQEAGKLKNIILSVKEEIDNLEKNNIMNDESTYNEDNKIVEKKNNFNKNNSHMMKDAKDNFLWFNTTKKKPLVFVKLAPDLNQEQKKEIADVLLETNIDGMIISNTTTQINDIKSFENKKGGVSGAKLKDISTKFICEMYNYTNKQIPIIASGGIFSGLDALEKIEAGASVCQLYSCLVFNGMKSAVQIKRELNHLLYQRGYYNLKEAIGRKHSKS
T1 sequence (Q02127 29-395 limits assumed): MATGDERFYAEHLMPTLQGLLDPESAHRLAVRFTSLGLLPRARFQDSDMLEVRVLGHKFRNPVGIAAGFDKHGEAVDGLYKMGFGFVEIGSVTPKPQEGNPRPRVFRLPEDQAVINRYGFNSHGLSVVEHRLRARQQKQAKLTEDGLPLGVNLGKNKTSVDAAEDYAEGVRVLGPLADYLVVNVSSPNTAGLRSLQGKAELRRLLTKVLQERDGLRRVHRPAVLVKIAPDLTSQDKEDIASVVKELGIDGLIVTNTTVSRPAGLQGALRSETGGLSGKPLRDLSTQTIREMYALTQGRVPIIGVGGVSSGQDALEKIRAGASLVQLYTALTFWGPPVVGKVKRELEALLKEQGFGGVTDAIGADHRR

For `O=C1COC2=C1C(=O)N(C1CC1)CN2c1ccc2ccccc2c1` [Compound 25, 3-Cyclopropyl-1-(naphthalen-2-yl)-2,3-dihydrofuro[2,3-d]pyrimidine-4,5(1H,6H)-dione], the melting point (usually the temperature, or range, at which the solid turns liquid) lay in the range of 128.8 to 129.5 °C. In series [1], the IC50 (as a rule, the concentration at which inhibition is half-maximal) is above 10 µM. The compound also displayed an IC50 in series [2] of 5 ± 1 µM.

In turn, `CN1CN(c2ccc3ccccc3c2)C2=C(C(=O)CO2)C1=O` [Compound 22, 3-Methyl-1-(naphthalen-2-yl)-2,3-dihydrofuro[2,3-d]pyrimidine-4,5(1H,6H)-dione] yielded a melting point of 127.9 to 128.5 °C. In series [1], this compound returned an IC50 above 10 µM. Further, the IC50 in series [2] (setting [12]) worked out at 8 ± 1 µM.

The compound `CCN1CN(c2ccc3ccccc3c2)C2=C(C(=O)CO2)C1=O` [Compound 23, 3-Ethyl-1-(naphthalen-2-yl)-2,3-dihydrofuro[2,3-d]pyrimidine-4,5(1H,6H)-dione] showed a melting point of 128.3 to 129 °C. Further, the IC50 in [1] was above 10 µM. Further, the half-maximal inhibitory concentration (IC50) in [2] (setting [12]) is 4 ± 1 µM.

On to `CCCNC(=O)C1=C(Nc2ccc3ccccc3c2)OCC1=O` [Compound 16, 2-(Naphthalen-2-ylamino)-4-oxo-N-propyl-4,5-dihydrofuran-3-carboxamide], for which the IC50 in [1] and in series [2] (setting [12]) was above 10 µM each time. Moreover, the “inhibitory activity against PfDHODH (in words)” value (from here on “inhibitory activity”) in [2] is reported as “lost their activities”.

Compound `CNC(=O)C1=C(Nc2ccc3ccccc3c2)OCC1=O` [Compound 14, N-Methyl-2-(naphthalen-2-ylamino)-4-oxo-4,5-dihydrofuran-3-carboxamide] registered a melting point of 126.3 to 126.9 °C. In series [1], this compound returned an IC50 above 10 µM. Also, the IC50 in series [2] (setting [12]) was 9 ± 1 µM.

For `CCOC(=O)C1=C(Nc2ccc3ccccc3c2)OCC1=O` [Compound 10], the IC50 in [3] is 0.015 µM; in series [4] it was 0.018 µM; in [7], 0.006 µM. Also, the “metabolic properties (in words)” value in [5] is recorded as “poor metabolic properties”. Also, in series [6], the “species selectivity over hDHODH” value is listed as > 14,000 fold. For the same compound, in series [8], the “efficacy in vivo (in words)” value is listed as “less effective in vivo”.

Consider `CCNC(=O)C1=C(Nc2ccc3ccccc3c2)OCC1=O` [Compound 15, N-Ethyl-2-(naphthalen-2-ylamino)-4-oxo-4,5-dihydrofuran-3-carboxamide], for which the melting point lay in the range of 121.8 to 123 °C. Also, the IC50 in series [1] is above 10 µM. For the same compound, the IC50 in [2] (setting [12]) turned out to be 4.8 ± 0.4 µM.

Regarding `Cc1cc(Nc2ccc(C(F)(F)F)nc2)n2nc(C(C)(F)F)nc2n1` [Compound 9], in series [9], the “intrinsic clearance (in words)” value is on record as “lower intrinsic clearance”. Besides, the “solubility (in words)” value in [10] is “improved solubility”. Moreover, in [11], the “plasma exposure after oral dosing (in words)” value was “increased plasma exposure after oral dosing”.

`O=C1COC(Nc2ccc3ccccc3c2)=C1C(=O)NCC1CC1` [Compound 19, N-(Cyclopropylmethyl)-2-(naphthalen-2-ylamino)-4-oxo-4,5-dihydrofuran-3-carboxamide] had a melting point of 164.8 to 165.3 °C. Also, the IC50 in series [1] is above 10 µM. Besides, the IC50 in series [2] (setting [12]) is above 10 µM. The “inhibitory activity” value in series [2] is reported as “lost the inhibitory activity”.

Consider `CCN1CN(c2ccc3c(c2)CCC3)C2=C(C(=O)CO2)C1=O` [Compound 21, 1-(2,3-Dihydro-1H-inden-5-yl)-3-ethyl-2,3-dihydrofuro[2,3-d]pyrimidine-4,5(1H,6H)-dione], for which the melting point was in the range of 128.6 to 129.4 °C. In series [1], the IC50 was above 10 µM. Also, the IC50 in series [2] (setting [12]) was above 10 µM.

Consider `CCCN1CN(c2ccc3ccccc3c2)C2=C(C(=O)CO2)C1=O` [Compound 24, 1-(Naphthalen-2-yl)-3-propyl-2,3-dihydrofuro[2,3-d]pyrimidine-4,5(1H,6H)-dione], for which the melting point was 128.6 to 129.7 °C. In addition, in series [1], the IC50 was above 10 µM. For the same compound, the IC50 in [2] (setting [12]) was 12 ± 6 µM.

For `O=C1COC(Nc2ccc3ccccc3c2)=C1C(=O)NC1CC1` [Compound 18, N-Cyclopropyl-2-(naphthalen-2-ylamino)-4-oxo-4,5-dihydrofuran-3-carboxamide], the melting point lay in the range of 140.8 to 141.6 °C. This compound had an IC50 in series [1] above 10 µM. In [2] (setting [12]), the IC50 came to 6 ± 1 µM.

For the compound `NN1CN(c2ccc3ccccc3c2)C2=C(C(=O)CO2)C1=O` [Compound 26, 3-Amino-1-(naphthalen-2-yl)-2,3-dihydrofuro[2,3-d]pyrimidine-4,5(1H,6H)-dione], the melting point was in the range of 168.4 to 169.2 °C. For the same compound, the “species selectivity over hDHODH” value in [1] (PfDHODH versus hDHODH) is above 400 fold. In series [1], this compound yielded an IC50 above 10 µM. The “fold more active against PfDHODH than compound 20” value in series [2] (compared with compound 20) worked out at 3 fold. In addition, the IC50 in series [2] (setting [12]) stood at 0.023 ± 0.001 µM.

`O=C(O)C1=C(Nc2ccc3ccccc3c2)OCC1=O` [Compound 11, 2-(Naphthalen-2-ylamino)-4-oxo-4,5-dihydrofuran-3-carboxylic acid] yielded a melting point of 164.4 to 165 °C. Also, the IC50 in [1] is above 10 µM. The IC50 in series [2] (setting [12]) came to 0.106 ± 0.009 µM. Also, the “inhibitory activity” value in series [2] is listed as “lower inhibitory activity in comparison with 10”.

As to `NNC(=O)C1=C(Nc2ccc3ccccc3c2)OCC1=O` [Compound 20, 2-(Naphthalen-2-ylamino)-4-oxo-4,5-dihydrofuran-3-carbohydrazide], the melting point is 167.3 to 167.9 °C. For the same compound, the concentration for half-maximal inhibition (IC50) in series [1] is above 10 µM. The IC50 in series [2] (setting [12]) was determined as 0.07 ± 0.01 µM.

`CCNC(=O)C1=C(Nc2ccc3c(c2)CCC3)OCC1=O` [Compound 13, 2-[(2,3-Dihydro-1H-inden-5-yl)amino]-N-ethyl-4-oxo-4,5-dihydrofuran-3-carboxamide] returned a melting point of 127.7 to 128.2 °C. Moreover, the IC50 in series [1] was above 10 µM. Besides, the IC50 in series [2] (setting [12]) was above 10 µM.

As for `CCNC(=O)C1=C(Nc2ccccc2)OCC1=O` [Compound 12, N-Ethyl-4-oxo-2-(phenylamino)-4,5-dihydrofuran-3-carboxamide], the melting point lay in the range of 146.9 to 147.4 °C. In [1], this compound yielded an IC50 of 2.4 ± 0.1 µM. Besides, in series [2] (setting [12]), the IC50 was above 10 µM. Moreover, the “inhibitory activity” value in series [2] was “inactive”.
